Test results reported in patent publication US20240101570A1 (AMGEN INC., priority 2020, published 2024).

Columns and labels:
HCT116 MTAP null cells = assay: HCT116 MTAP null cell proliferation / viability (CellTiter-Glo, 6 days); assay type: cell-based; conditions: HCT116-MTAP null, 144 h, HCT116 MTAP null cells, 6 days, CellTiter-Glo; read-out: HCT-116 MTAP null IC50
Summary of the method: (§1)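 Viability read by CellTiter-Glo after 6-day compound exposure of MTAP-null and wild-type HCT116 cells grown in RPMI 1640 with 10% FBS. Dosing used 1:3 steps from 1 or 10 μM (8-9 points) or 1:2 steps from 10 or 50 μM (22 points); IC50 taken where fitted curve crosses 50% of control.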

HCT116 WT cells = assay: HCT116 WT cell proliferation / viability (CellTiter-Glo, 6 days); assay type: cell-based; conditions: Homo sapiens, HCT-116, 144 h, HCT116 WT cells, 6 days, CellTiter-Glo; read-out: HCT-116 WT IC50
Summary of the method: as §1

| Compound | IC50 (HCT116 MTAP null cells) | IC50 (HCT116 WT cells) |
| --- | --- | --- |
| CN(Cc1ccc(C2CC2)nn1)C(=O)c1cc2c(cc1F)nc(N)c1c2cnn1C [Example 517, 4-amino-N-((6-cyclopropyl-3-pyridazinyl)methyl)-7-fluoro-N,3-dimethyl-3H-pyrazolo[3,4-c]quinoline-8-carboxamide] | 706 nM | 45.4 µM |
| CN(Cc1ccc(C2CC2)nn1)C(=O)c1cc2c(cc1F)nc(N)c1cnn(C)c12 [Example 518, 4-amino-N-((6-cyclopropyl-3-pyridazinyl)methyl)-7-fluoro-N,1-dimethyl-1H-pyrazolo[4,3-c]quinoline-8-carboxamide] | 106 nM | 6.27 µM |
| CN(Cc1ccc(C2CC2)nn1)C(=O)c1cc2c3c(c(N)nc2cc1Cl)COC3 [Example 519, 4-amino-7-chloro-N-((6-cyclopropyl-3-pyridazinyl)methyl)-N-methyl-1,3-dihydrofuro[3,4-c]quinoline-8-carboxamide] | 187 nM | 14 µM |
| Cc1cc2nc(N)c3c(cnn3C)c2cc1C(=O)N(C)Cc1ccc(C(F)(F)F)cn1 [Example 520, 4-amino-N,3,7-trimethyl-N-((5-(trifluoromethyl)-2-pyridinyl)methyl)-3H-pyrazolo[3,4-c]quinoline-8-carboxamide] | 149 nM | 9.06 µM |
| CC(C)N(Cc1ccc(C2CC2)cn1)C(=O)c1cc2c(cc1F)nc(N)c1c2cnn1C [Example 522, 4-amino-N-((5-cyclopropyl-2-pyridinyl)methyl)-7-fluoro-3-methyl-N-(2-propanyl)-3H-pyrazolo[3,4-c]quinoline-8-carboxamide] | 14 nM | 0.38 µM |
| CN(Cc1ccc(C(F)F)cn1)C(=O)c1cc2c(cc1F)nc(N)c1cnn(C)c12 [Example 525, 4-amino-N-((5-(difluoromethyl)-2-pyridinyl)methyl)-7-fluoro-N,1-dimethyl-1H-pyrazolo[4,3-c]quinoline-8-carboxamide] | 32 nM | 2.12 µM |
| CN(Cc1ncc(C(F)(F)F)cc1F)C(=O)c1cc2c3c(c(N)nc2cc1F)COC3 [Example 528, 4-amino-7-fluoro-N-((3-fluoro-5-(trifluoromethyl)-2-pyridinyl)methyl)-N-methyl-1,3-dihydrofuro[3,4-c]quinoline-8-carboxamide] | 111 nM | 5.42 µM |
| CC(C)N(Cc1ccc(C(F)(F)F)cn1)C(=O)c1cc2c3c(c(N)nc2cn1)CCO3 [Example 534, 4-amino-N-(2-propanyl)-N-((5-(trifluoromethyl)-2-pyridinyl)methyl)-2,3-dihydrofuro[3,2-c][1,7]naphthyridine-8-carboxamide] | 581 nM | 5.58 µM |
| CC(C)N(Cc1ccc(C(F)(F)F)cn1)C(=O)c1cc2c3c(c(N)nc2cc1F)CCO3 [Example 536, 4-amino-7-fluoro-N-(2-propanyl)-N-((5-(trifluoromethyl)-2-pyridinyl)methyl)-2,3-dihydrofuro[3,2-c]quinoline-8-carboxamide] | 50 nM | 0.325 µM |
| CCN(Cc1ccc(C(F)(F)F)cn1)C(=O)c1cc2c3c(c(N)nc2nc1Cl)COC3 [Example 537, 4-amino-7-chloro-N-ethyl-N-((5-(trifluoromethyl)-2-pyridinyl)methyl)-1,3-dihydrofuro[3,4-c][1,8]naphthyridine-8-carboxamide] | 222 nM | 5.39 µM |
| Cc1nn(C)c2c1c(N)nc1cc(F)c(C(=O)N(Cc3ccc(C(F)(F)F)cn3)C(C)C)cc12 [Example 538, 4-amino-7-fluoro-1,3-dimethyl-N-(2-propanyl)-N-((5-(trifluoromethyl)-2-pyridinyl)methyl)-1H-pyrazolo[4,3-c]quinoline-8-carboxamide] | 40 nM | 0.735 µM |
| CCN(Cc1ccc(C2CC2)cn1)C(=O)c1ccc2nc(N)c3c(c2c1)COC3 [Example 539, 4-amino-N-((5-cyclopropyl-2-pyridinyl)methyl)-N-ethyl-1,3-dihydrofuro[3,4-c]quinoline-8-carboxamide] | 106 nM | 2.1 µM |
| CCN(Cc1ccc(C2CC2)cn1)C(=O)c1ccc2nc(N)c3cnn(C)c3c2c1 [Example 540, 4-amino-N-((5-cyclopropyl-2-pyridinyl)methyl)-N-ethyl-1-methyl-1H-pyrazolo[4,3-c]quinoline-8-carboxamide] | 39 nM | 1.48 µM |
| CCN(Cc1ccc(C2CC2)cn1)C(=O)c1cc2c(cn1)nc(N)c1cnn(C)c12 [Example 541, 4-amino-N-((5-cyclopropyl-2-pyridinyl)methyl)-N-ethyl-1-methyl-1H-pyrazolo[4,3-c][1,7]naphthyridine-8-carboxamide] | 37 nM | 0.548 µM |
| CCN(Cc1ccc(C2CC2)cn1)C(=O)c1ccc2nc(N)c3c(c2c1)CO[C@@H]3C [Example 542, (3R)-4-amino-N-((5-cyclopropyl-2-pyridinyl)methyl)-N-ethyl-3-methyl-1,3-dihydrofuro[3,4-c]quinoline-8-carboxamide] | 35 nM | 1.54 µM |
| CCN(Cc1ccc(C2CC2)cn1)C(=O)c1cc2c(cc1F)nc(N)c1cnn(C)c12 [Example 545, 4-amino-N-((5-cyclopropyl-2-pyridinyl)methyl)-N-ethyl-7-fluoro-1-methyl-1H-pyrazolo[4,3-c]quinoline-8-carboxamide] | 7 nM | 0.14 µM |

The remaining lines, values ahead:

| IC50 (HCT116 MTAP null cells) | IC50 (HCT116 WT cells) | Compound |
| --- | --- | --- |
| 18 nM | 0.698 µM | Cc1cc2nc(N)c3cnn(C)c3c2cc1C(=O)N(C)Cc1ccc(C(F)(F)F)cn1 [Example 521, 4-amino-N,1,7-trimethyl-N-((5-(trifluoromethyl)-2-pyridinyl)methyl)-1H-pyrazolo[4,3-c]quinoline-8-carboxamide] |
| 72 nM | 6.79 µM | CN(Cc1ccc(Cl)cn1)C(=O)c1ccc2nc(N)c3cnn(C)c3c2c1 [Example 523, 4-amino-N-((5-chloro-2-pyridinyl)methyl)-N,1-dimethyl-1H-pyrazolo[4,3-c]quinoline-8-carboxamide] |
| 183 nM | 16.4 µM | CN(Cc1ccc(C(F)F)cn1)C(=O)c1ccc2nc(N)c3cnn(C)c3c2c1 [Example 524, 4-amino-N-((5-(difluoromethyl)-2-pyridinyl)methyl)-N,1-dimethyl-1H-pyrazolo[4,3-c]quinoline-8-carboxamide] |
| 169 nM | 6.95 µM | CN(Cc1ccc(C(F)(F)F)c(F)c1)C(=O)c1ccc2nc(N)c3cnn(C)c3c2c1 [Example 526, 4-amino-N-(3-fluoro-4-(trifluoromethyl)benzyl)-N,1-dimethyl-1H-pyrazolo[4,3-c]quinoline-8-carboxamide] |
| 183 nM | 13.5 µM | CN(Cc1ncc(C(F)(F)F)cc1F)C(=O)c1ccc2nc(N)c3cnn(C)c3c2c1 [Example 527, 4-amino-N-((3-fluoro-5-(trifluoromethyl)-2-pyridinyl)methyl)-N,1-dimethyl-1H-pyrazolo[4,3-c]quinoline-8-carboxamide] |
| 887 nM | 28.5 µM | CN(Cc1ccc(-c2cnn(C(F)(F)F)c2)nn1)C(=O)c1ccc2nc(N)c3cnn(C)c3c2c1 [Example 529, 4-amino-N,1-dimethyl-N-((6-(1-(trifluoromethyl)-1H-pyrazol-4-yl)-3-pyridazinyl)methyl)-1H-pyrazolo[4,3-c]quinoline-8-carboxamide] |
| 165 nM | 6.56 µM | CN(Cc1ccc(-c2ccc(C(F)(F)F)cc2)nn1)C(=O)c1ccc2nc(N)c3cnn(C)c3c2c1 [Example 530, 4-amino-N,1-dimethyl-N-((6-(4-(trifluoromethyl)phenyl)-3-pyridazinyl)methyl)-1H-pyrazolo[4,3-c]quinoline-8-carboxamide] |
| 188 nM | 2.34 µM | C[C@H](c1ccc(-c2ccc(C(F)(F)F)cc2)cc1)N(C)C(=O)c1ccc2nc(N)c3cnn(C)c3c2c1 [Example 531, 4-amino-N,1-dimethyl-N-((1R)-1-(4′-(trifluoromethyl)[biphenyl]-4-yl)ethyl)-1H-pyrazolo[4,3-c]quinoline-8-carboxamide] |
| 37 nM | 2.03 µM | C[C@H](c1ccc(-c2ccc(C(F)(F)F)cc2)nn1)N(C)C(=O)c1ccc2nc(N)c3cnn(C)c3c2c1 [Example 532, 4-amino-N,1-dimethyl-N-((1R)-1-(6-(4-(trifluoromethyl)phenyl)-3-pyridazinyl)ethyl)-1H-pyrazolo[4,3-c]quinoline-8-carboxamide] |
| 459 nM | 3.19 µM | C[C@H](c1ccc(-c2ccc(S(F)(F)(F)(F)F)cc2)cc1)N(C)C(=O)c1ccc2nc(N)c3cnn(C)c3c2c1 [Example 533, 4-amino-N,1-dimethyl-N-((1R)-1-(4′-(pentafluoro-lambda~6~- sulfanyl)[biphenyl]-4-yl)ethyl)-1H-pyrazolo[4,3-c]quinoline-8-carboxamide] |
| 860 nM | 6.99 µM | CN(CC(F)(F)c1ccc(Cl)cn1)C(=O)c1ccc2nc(N)c3cnn(C)c3c2c1 [Example 535, 4-amino-N-(2-(5-chloro-2-pyridinyl)-2,2-difluoroethyl)-N,1-dimethyl-1H-pyrazolo[4,3-c]quinoline-8-carboxamide] |
| 57 nM | 2.01 µM | CN(Cc1ccc(C(F)(F)F)cc1)C(=O)c1ccc2nc(N)c3cnn(C)c3c2c1 [Example 543, 4-amino-N,1-dimethyl-N-(4-(trifluoromethyl)benzyl)-1H-pyrazolo[4,3-c]quinoline-8-carboxamide] |
| 56 nM | 2.32 µM | CN(Cc1ccc(C(F)(F)F)cc1)C(=O)c1cc2c(cn1)nc(N)c1cnn(C)c12 [Example 544, 4-amino-N,1-dimethyl-N-(4-(trifluoromethyl)benzyl)-1H-pyrazolo[4,3-c][1,7]naphthyridine-8-carboxamide] |
